Key:
Experiment in all cases: relative viability (nuclei count vs DMSO), 5 days (fraction); higher = more cells survive
NCI-H1651 = system: NCI-H1651
In short: (§1)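 The day after seeding in 1536-well plates, lung cancer cell lines were treated by pin tool with a single drug, or with a fixed anchor-drug dose together with five library-drug doses (not always all listed) in √10 steps. After 5 days, a combined fix-and-stain solution (final 0.05% Triton X-100, 1% formaldehyde, 1 ug/ml Hoechst) was added. Nuclei counted on 4× images gave relative viability as treated counts over vehicle counts, reported as the median of duplicate plates.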

NCI-H1648 = system: NCI-H1648
In short: as §1

ChaGo-K-1 = system: ChaGo-K-1
In short: as §1

SK-MES-1 = system: SK-MES-1
In short: as §1

NCI-H522 = system: NCI-H522
In short: as §1

A549 = system: A549
In short: as §1

`O=C(O)c1ccc(-c2c[nH]c3ncc(-c4ccccc4)cc23)cc1C1CCCC1` + Nc1ncn([C@H]2C[C@H](O)[C@@H](CO)O2)c(=O)n1 [Decitabine] (partner 2 µM) showed a relative viability (NCI-H1651; first compound 0.04 µM) of 0.477, a relative viability (NCI-H1651; first compound 0.1265 µM) of 0.616 and a relative viability (NCI-H1651; first compound 0.4 µM) of 0.57. It also gave a relative viability (NCI-H1651; first compound 1.265 µM) of 0.54, a relative viability (NCI-H1648; first compound 0.04 µM) of 0.587 and a relative viability (NCI-H1648; first compound 0.1265 µM) of 0.599. The relative viability (NCI-H1648; first compound 0.4 µM) was 0.569, the relative viability (ChaGo-K-1; first compound 0.04 µM) was 0.515 and the relative viability (ChaGo-K-1; first compound 0.1265 µM) was 0.501. For the same compound, the relative viability (ChaGo-K-1; first compound 0.4 µM) was 0.484, the relative viability (ChaGo-K-1; first compound 1.265 µM) was 0.478 and the relative viability (SK-MES-1; first compound 0.04 µM) was 0.335. The relative viability (SK-MES-1; first compound 0.1265 µM) was 0.398, the relative viability (SK-MES-1; first compound 0.4 µM) was 0.363 and the relative viability (SK-MES-1; first compound 1.265 µM) was 0.328. The relative viability (NCI-H522; first compound 0.04 µM) was 0.662, the relative viability (NCI-H522; first compound 0.1265 µM) was 0.593 and the relative viability (NCI-H522; first compound 0.4 µM) was 0.591. For the same compound, the relative viability (NCI-H522; first compound 1.265 µM) was 0.602, the relative viability (A549; first compound 0.04 µM) was 0.291 and the relative viability (A549; first compound 0.1265 µM) was 0.265. The relative viability (A549; first compound 0.4 µM) was 0.277 and the relative viability (A549; first compound 1.265 µM) was 0.251.
In the case of `CC1(C)CCC(c2ccc(Cl)cc2)=C(CN2CCN(c3ccc(C(=O)NS(=O)(=O)c4ccc(N[C@H](CCN5CCOCC5)CSc5ccccc5)c(S(=O)(=O)C(F)(F)F)c4)cc3)CC2)C1` [Navitoclax] + CC(=O)Nc1cccc(-n2c(=O)n(C3CC3)c(=O)c3c(Nc4ccc(I)cc4F)n(C)c(=O)c(C)c32)c1 [Trametinib] (partner 0.02 µM), the relative viability (NCI-H1651; first compound 0.005 µM) was 0.822, the relative viability (NCI-H1651; first compound 0.01581 µM) was 0.921 and the relative viability (NCI-H1651; first compound 0.05 µM) was 0.61. For the same compound, the relative viability (NCI-H1651; first compound 0.1581 µM) was 0.771, the relative viability (NCI-H1651; first compound 0.5 µM) was 0.864 and the relative viability (NCI-H1648; first compound 0.005 µM) was 0.541. It also gave a relative viability (NCI-H1648; first compound 0.01581 µM) of 0.427, a relative viability (NCI-H1648; first compound 0.1581 µM) of 0.453 and a relative viability (NCI-H1648; first compound 0.5 µM) of 0.402. It also gave a relative viability (ChaGo-K-1; first compound 0.005 µM) of 0.812, a relative viability (ChaGo-K-1; first compound 0.01581 µM) of 0.859 and a relative viability (ChaGo-K-1; first compound 0.05 µM) of 0.451. For the same compound, the relative viability (ChaGo-K-1; first compound 0.1581 µM) was 0.904, the relative viability (ChaGo-K-1; first compound 0.5 µM) was 0.837 and the relative viability (SK-MES-1; first compound 0.005 µM) was 0.516. For the same compound, the relative viability (SK-MES-1; first compound 0.01581 µM) was 0.681, the relative viability (SK-MES-1; first compound 0.05 µM) was 0.547 and the relative viability (SK-MES-1; first compound 0.1581 µM) was 0.591. The relative viability (SK-MES-1; first compound 0.5 µM) was 0.654, the relative viability (NCI-H522; first compound 0.005 µM) was 0.753 and the relative viability (NCI-H522; first compound 0.01581 µM) was 0.782. The relative viability (NCI-H522; first compound 0.05 µM) was 0.778, the relative viability (NCI-H522; first compound 0.1581 µM) was 0.627 and the relative viability (NCI-H522; first compound 0.5 µM) was 0.725.
`O=C(O)c1ccc(-c2c[nH]c3ncc(-c4ccccc4)cc23)cc1C1CCCC1` + CC(=O)c1c(C)c2cnc(Nc3ccc(N4CCNCC4)cn3)nc2n(C2CCCC2)c1=O [Palbociclib] (partner 0.5 µM) gave a relative viability (NCI-H1651; first compound 0.04 µM) of 0.534, a relative viability (NCI-H1651; first compound 0.1265 µM) of 0.524 and a relative viability (NCI-H1651; first compound 0.4 µM) of 0.514. The relative viability (NCI-H1651; first compound 1.265 µM) was 0.475, the relative viability (NCI-H1648; first compound 0.04 µM) was 0.285 and the relative viability (NCI-H1648; first compound 0.1265 µM) was 0.294. The relative viability (NCI-H1648; first compound 0.4 µM) was 0.27, the relative viability (ChaGo-K-1; first compound 0.04 µM) was 0.958 and the relative viability (ChaGo-K-1; first compound 0.1265 µM) was 0.966. The relative viability (ChaGo-K-1; first compound 0.4 µM) was 0.945, the relative viability (ChaGo-K-1; first compound 1.265 µM) was 0.834 and the relative viability (SK-MES-1; first compound 0.04 µM) was 0.335. For the same compound, the relative viability (SK-MES-1; first compound 0.1265 µM) was 0.288, the relative viability (SK-MES-1; first compound 0.4 µM) was 0.303 and the relative viability (SK-MES-1; first compound 1.265 µM) was 0.265. It also gave a relative viability (NCI-H522; first compound 0.04 µM) of 0.977, a relative viability (NCI-H522; first compound 0.1265 µM) of 1.02 and a relative viability (NCI-H522; first compound 0.4 µM) of 1.06. For the same compound, the relative viability (NCI-H522; first compound 1.265 µM) was 1.1.
For `NC(=O)Nc1cc(-c2cccc(F)c2)sc1C(=O)N[C@H]1CCCNC1` [AZD7762] + Nc1nc2[nH]cc(CCc3ccc(C(=O)N[C@@H](CCC(=O)O)C(=O)O)cc3)c2c(=O)[nH]1 [Pemetrexed] (partner 0.2 µM), the relative viability (NCI-H1651; first compound 0.01 µM) was 0.624, the relative viability (NCI-H1651; first compound 0.03162 µM) was 0.688 and the relative viability (NCI-H1651; first compound 0.1 µM) was 0.558. For the same compound, the relative viability (NCI-H1651; first compound 0.3162 µM) was 0.385, the relative viability (NCI-H1651; first compound 1 µM) was 0.259 and the relative viability (NCI-H1648; first compound 0.01 µM) was 0.644. For the same compound, the relative viability (NCI-H1648; first compound 0.03162 µM) was 0.646, the relative viability (NCI-H1648; first compound 0.1 µM) was 0.704 and the relative viability (NCI-H1648; first compound 0.3162 µM) was 0.553. For the same compound, the relative viability (NCI-H1648; first compound 1 µM) was 0.631, the relative viability (ChaGo-K-1; first compound 0.01 µM) was 0.26 and the relative viability (ChaGo-K-1; first compound 0.03162 µM) was 0.267. It also gave a relative viability (ChaGo-K-1; first compound 0.1 µM) of 0.259, a relative viability (ChaGo-K-1; first compound 0.3162 µM) of 0.243 and a relative viability (ChaGo-K-1; first compound 1 µM) of 0.256. For the same compound, the relative viability (SK-MES-1; first compound 0.01 µM) was 1.01, the relative viability (SK-MES-1; first compound 0.03162 µM) was 0.914 and the relative viability (SK-MES-1; first compound 0.1 µM) was 0.86. It also gave a relative viability (SK-MES-1; first compound 0.3162 µM) of 0.433, a relative viability (SK-MES-1; first compound 1 µM) of 0.237 and a relative viability (NCI-H522; first compound 0.01 µM) of 1.03. For the same compound, the relative viability (NCI-H522; first compound 0.03162 µM) was 1.05, the relative viability (NCI-H522; first compound 0.1 µM) was 0.862 and the relative viability (NCI-H522; first compound 0.3162 µM) was 0.943. The relative viability (NCI-H522; first compound 1 µM) was 0.791.

— the supplement of paper PMC10307832
